Experiment [1] has as its system Poly/Mono-ADP Ribose in U2OS cells. In words: PAR in cell western assay (parylation) in U2OS cells. The format is cell-based. As to conditions: U2OS cells, 6 hrs, 2 mM H2O2, read-out: Parylation (U2OS). In a few lines: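 U2OS cells treated with compound for 6 h, then 2 mM H2O2 for 10 min to induce DNA damage. After methanol fixation, cells stained overnight at 4 °C with anti-mono/poly-ADP-ribose antibody and imaged by infrared in-cell western, normalized to CellTag 700; reported as % control inhibition.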

The target of experiment [2] is T1, PARP1 (Homo sapiens, UniProt P09874). Put plainly: PARP1-enzyme assay (NAD/NADH-Glo biochemical assay). As to conditions: recombinant PARP1, NAD+ consumption. As to the method: The PARP enzyme catalyzes the transfer of ADP-Ribose from NAD+ onto PAR chains/histone substrates. The catalytic cycle is monitored indirectly with the NAD/NADH-Glo Assay kit from Promega. […] NAD+ consumed is determined by comparison to the no enzyme control.
• Recombinant PARP1 • NAD+/NAHD-Glow assay Kit • Activated DNA, 10 μg/mL • NAD+(Nicotinamide Adenine Dinucleotide), 500 nM • Protein substrate for PARP1: Core Histone from chicken, 10 μg/mL
The letter codes for the PARP1-enzyme assay include: A (<1 nM), B (>1-10 nM), C (>10-100 nM), D (>100-1000 nM), E (>1000 nM), and “-” is not tested. The letter codes for the PARP trapping assay, and parylation assay include: A (<10 nM), B (>10-100 nM), C (>100-1000 nM), […], E (>10000 nM), and “-” is not tested.
Target sequence in this assay (P09874 whole entry, species assumed): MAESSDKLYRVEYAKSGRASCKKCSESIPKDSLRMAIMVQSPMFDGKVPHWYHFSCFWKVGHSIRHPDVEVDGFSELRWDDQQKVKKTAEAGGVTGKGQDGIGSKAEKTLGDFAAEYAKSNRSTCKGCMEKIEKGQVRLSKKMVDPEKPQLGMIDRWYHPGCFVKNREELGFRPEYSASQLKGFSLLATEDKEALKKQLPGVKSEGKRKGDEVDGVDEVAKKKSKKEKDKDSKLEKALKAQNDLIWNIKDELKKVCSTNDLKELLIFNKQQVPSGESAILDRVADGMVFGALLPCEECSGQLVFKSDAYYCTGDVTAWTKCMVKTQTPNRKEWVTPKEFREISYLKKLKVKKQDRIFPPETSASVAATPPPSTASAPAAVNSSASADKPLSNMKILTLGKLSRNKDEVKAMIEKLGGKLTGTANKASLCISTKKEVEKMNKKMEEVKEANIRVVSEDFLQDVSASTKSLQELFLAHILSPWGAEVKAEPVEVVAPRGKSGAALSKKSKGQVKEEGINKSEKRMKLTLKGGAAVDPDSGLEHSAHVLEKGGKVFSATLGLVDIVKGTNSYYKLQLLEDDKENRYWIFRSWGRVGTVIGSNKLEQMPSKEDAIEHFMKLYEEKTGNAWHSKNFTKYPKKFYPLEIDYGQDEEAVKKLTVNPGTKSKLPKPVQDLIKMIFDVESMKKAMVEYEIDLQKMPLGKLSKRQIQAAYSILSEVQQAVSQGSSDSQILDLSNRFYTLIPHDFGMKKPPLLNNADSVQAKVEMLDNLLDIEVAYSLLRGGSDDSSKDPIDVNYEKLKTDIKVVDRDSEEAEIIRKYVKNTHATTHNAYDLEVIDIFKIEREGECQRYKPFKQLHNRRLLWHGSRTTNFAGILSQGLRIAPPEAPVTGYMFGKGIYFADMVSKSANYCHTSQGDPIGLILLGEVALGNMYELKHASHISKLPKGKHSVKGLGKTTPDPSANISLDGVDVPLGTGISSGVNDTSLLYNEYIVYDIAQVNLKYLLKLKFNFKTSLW

The subject of the next experiment is MDA-MB-436 cells. In words: Cell proliferation assay (MDA-MB-436). The format is cell-based. As to conditions: 7 days.
Experiment [3] addresses T1, PARP1. Put plainly: PARP trapping assay in U2OS cells. It counts as cell-based. On the set-up: endogenous in cells; host or cells: U2OS. The note with it: U2OS cells, MMS, 4 hrs; read-out: PARP Trapping (U2OS). In a few lines:
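U2OS cells co-treated with compounds and MMS for 4 h, then soluble proteins extracted with 0.5% Triton X-100, MeOH-fixed and immunostained for PARP1. Chromatin-bound PARP1 quantified as AF488 intensity per DAPI-segmented nucleus; potencies reported as letter-code bins.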
Target sequence in this assay (P09874 whole entry): as the sequence (P09874 whole entry, species assumed) above

The next experiment has as its system HCC1806 cells. Put plainly: Cell proliferation assay (HCC1806). As to conditions: 7 days. The format is cell-based.
The next experiment relates to A2780 cells. Put plainly: Cell proliferation assay (A2780). The format is cell-based. The note with it: Homo sapiens, 168 h, 7 days.

Each structure is given as a SMILES string. Like-named read-outs stand apart in the source and are kept apart here. Bounds are passed on as bounds.

This is an account of results in patent US20250127907A1, “PARP INHIBITORS” (Stablix, Inc., priority 2023, published 2025).

As to `CCOc1cc(OC)ccc1CNCC(=O)N1CCCC(c2cccc(C(=O)N[C@@H](C(=O)N3CCC(OC4CCN(CC(=O)N5CCN(C(=O)c6cc(Cc7n[nH]c(=O)c8ccccc78)ccc6F)CC5)CC4)CC3)C3CCCCC3)c2)C1` (some centres unmarked) [Compound I-173], the IC50 in experiment [1] (Homo sapiens) was 100 to 1000 nM; at PARP1 [2], less than 1 nM; in the experiment on MDA-MB-436 cells (Homo sapiens, 168 h) it was 10 to 100 nM; at PARP1 [3], 10 to 100 nM; with HCC1806 cells (Homo sapiens, 168 h) it was less than 10 nM.

As to `Cc1sc(CN2CCCC2c2nnc3n2CCCCC3)nc1C12CC(C(=O)NCCOCCOCCOCCNCC(=O)N3CCN(C(=O)c4cc(Cc5n[nH]c(=O)c6ccccc56)ccc4F)CC3)(C1)C2` (centres unmarked) [Compound I-194], the IC50 in experiment [1] (Homo sapiens) is 100 to 1000 nM; on PARP1 [2], less than 1 nM; in the experiment on MDA-MB-436 cells (Homo sapiens, 168 h), 100 to 1000 nM; on PARP1 [3], more than 10000 nM; in the experiment on HCC1806 cells (Homo sapiens, 168 h), less than 10 nM.

As to `CCOc1cc(OC)ccc1CNCC(=O)N1CCCC(c2cccc(C(=O)N[C@@H](C(=O)N3CCN(CC4CCN(CC(=O)N5CCN(C(=O)c6cc(Cc7n[nH]c(=O)c8ccccc78)ccc6F)CC5)CC4)CC3)C3CCCCC3)c2)C1` (some centres unmarked) [Compound I-28], the IC50 in experiment [1] (Homo sapiens) was 100 to 1000 nM; in the experiment with A2780 cells it was 1000 to 10000 nM; on PARP1 [2] it was less than 1 nM; in the experiment on MDA-MB-436 cells (Homo sapiens, 168 h) it was 10 to 100 nM; at PARP1 [3], 100 to 1000 nM; in the experiment on HCC1806 cells (Homo sapiens, 168 h), 100 to 1000 nM.

As to `Cc1sc(CN2CCCC2c2nnc3n2CCCCC3)nc1C12CC(C(=O)NCCOCCOCCOCCOCCNCC(=O)N3CCN(C(=O)c4cc(Cc5n[nH]c(=O)c6ccccc56)ccc4F)CC3)(C1)C2` (centres unmarked) [Compound I-195], the IC50 was 10 to 100 nM in experiment [1] (Homo sapiens); less than 1 nM at PARP1 [2]; 100 to 1000 nM with MDA-MB-436 cells (Homo sapiens, 168 h); 1000 to 10000 nM on PARP1 [3]; less than 10 nM with HCC1806 cells (Homo sapiens, 168 h).

Turning to `O=C(N[C@@H](C(=O)N1CCC(OC2CCN(CC(=O)N3CCN(C(=O)c4cc(Cc5n[nH]c(=O)c6ccccc56)ccc4F)CC3)CC2)CC1)C1CCCCC1)c1cccc(C2CCCN(C(=O)C3CC3)C2)c1F` (some centres unmarked) [Compound I-457], the IC50 in experiment [1] (Homo sapiens) was 100 to 1000 nM; with A2780 cells, 10 to 100 nM; on PARP1 [2] it was less than 1 nM; with MDA-MB-436 cells (Homo sapiens, 168 h) it was less than 10 nM; on PARP1 [3], 10 to 100 nM; in the experiment with HCC1806 cells (Homo sapiens, 168 h) it was 10 to 100 nM.

Regarding `CCc1cccc(-c2cnc(C(=O)N3CCC(CN4CCN(CC(=O)N5CCN(C(=O)c6cc(Cc7n[nH]c(=O)c8ccccc78)ccc6F)CC5)CC4)CC3)c(N)c2)c1` [Compound I-366], the IC50 was 100 to 1000 nM in experiment [1] (Homo sapiens); 100 to 1000 nM with A2780 cells; less than 1 nM at PARP1 [2]; 100 to 1000 nM in the experiment on MDA-MB-436 cells (Homo sapiens, 168 h); 100 to 1000 nM on PARP1 [3]; 100 to 1000 nM in the experiment with HCC1806 cells (Homo sapiens, 168 h).

For the molecule `CC(C)(C)OC(=O)N[C@@H](C(=O)N1CCC(OC2CCN(CC(=O)N3CCN(C(=O)c4cc(Cc5n[nH]c(=O)c6ccccc56)ccc4F)CC3)CC2)CC1)C1CCCCC1` [Compound I-787], the IC50 was 10 to 100 nM in experiment [1] (Homo sapiens); 10 to 100 nM in the experiment on A2780 cells; less than 1 nM at PARP1 [2]; less than 10 nM with MDA-MB-436 cells (Homo sapiens, 168 h); 10 to 100 nM at PARP1 [3]; 10 to 100 nM in the experiment with HCC1806 cells (Homo sapiens, 168 h).

As for `CCc1cccc(-c2cnc(C(=O)N3CCC(CN4CCN(CC(=O)N5CCN(C(=O)c6cc(Cc7n[nH]c(=O)c8ccccc78)ccc6F)CC5)CC4)CC3)c(NC(C)=O)c2)c1` [Compound I-367], the IC50 was 100 to 1000 nM in experiment [1] (Homo sapiens); 100 to 1000 nM in the experiment with A2780 cells; less than 1 nM on PARP1 [2]; 100 to 1000 nM with MDA-MB-436 cells (Homo sapiens, 168 h); 100 to 1000 nM on PARP1 [3]; 100 to 1000 nM in the experiment with HCC1806 cells (Homo sapiens, 168 h).

For the molecule `CCc1cccc(-c2cc(F)c(C(=O)N3CCC(CN4CCN(CC(=O)N5CCN(C(=O)c6cc(Cc7n[nH]c(=O)c8ccccc78)ccc6F)CC5)CC4)CC3)c(F)c2)c1` [Compound I-410], the IC50 in experiment [1] (Homo sapiens) was 10 to 100 nM; with A2780 cells, 10 to 100 nM; on PARP1 [2], less than 1 nM; in the experiment on MDA-MB-436 cells (Homo sapiens, 168 h) it was less than 10 nM; on PARP1 [3], 10 to 100 nM; in the experiment on HCC1806 cells (Homo sapiens, 168 h) it was 10 to 100 nM.

For `CCc1cccc(-c2cnc(C(=O)NCCOCCNCC(=O)N3CCN(C(=O)c4cc(Cc5n[nH]c(=O)c6ccccc56)ccc4F)CC3)c(NC(=O)CNCc3cccc(C)c3)c2)c1` [Compound I-63], the IC50 in experiment [1] (Homo sapiens) was 100 to 1000 nM; in the experiment on A2780 cells, 10 to 100 nM; on PARP1 [2] it was less than 1 nM; in the experiment on MDA-MB-436 cells (Homo sapiens, 168 h), 100 to 1000 nM; at PARP1 [3], 100 to 1000 nM; with HCC1806 cells (Homo sapiens, 168 h), 100 to 1000 nM.

On to `Cc1sc(CN2CCCC2c2nnc3n2CCCCC3)nc1C12CC(C(=O)NCCOCCOCCNCC(=O)N3CCN(C(=O)c4cc(Cc5cccc6c(=O)[nH]ncc56)ccc4F)CC3)(C1)C2` (centres unmarked) [Compound I-193], for which the IC50 is 100 to 1000 nM in experiment [1]; less than 1 nM on PARP1 [2]; 100 to 1000 nM in the experiment with MDA-MB-436 cells; more than 10000 nM on PARP1 [3]; less than 10 nM in the experiment on HCC1806 cells.

As to `O=C(NC(C(=O)N1CCC(OC2CCN(CC(=O)N3CCN(C(=O)c4cc(Cc5n[nH]c(=O)c6ccccc56)ccc4F)CC3)CC2)CC1)C1CCCCC1)c1cccc(C2CCCN(C(=O)CNCc3ccc(F)cc3F)C2)c1` (centres unmarked) [Compound I-369], the IC50 is 10 to 100 nM in experiment [1] (Homo sapiens); 10 to 100 nM with A2780 cells; less than 1 nM at PARP1 [2]; less than 10 nM with MDA-MB-436 cells (Homo sapiens, 168 h); 100 to 1000 nM at PARP1 [3]; 100 to 1000 nM in the experiment on HCC1806 cells (Homo sapiens, 168 h).

`CCOc1cc(OC)ccc1CNCC(=O)N1CCC[C@H](c2cccc(C(=O)N[C@@H](C(=O)N3CCN(CC4CCN(CC(=O)N5CCN(C(=O)c6cc(Cc7n[nH]c(=O)c8ccccc78)ccc6F)CC5)CC4)CC3)C3CCCCC3)c2)C1` [Compound I-167]: the IC50 in experiment [1] (Homo sapiens) was 100 to 1000 nM; on PARP1 [2] it was less than 1 nM; in the experiment on MDA-MB-436 cells (Homo sapiens, 168 h) it was 100 to 1000 nM; at PARP1 [3] it was 10 to 100 nM; in the experiment on HCC1806 cells (Homo sapiens, 168 h) it was less than 10 nM.

Take `COC12CCC(CNCC(=O)N3CCCC(c4cccc(C(=O)N[C@@H](C(=O)N5CCN(CC6CCN(CC(=O)N7CCN(C(=O)c8cc(Cc9n[nH]c(=O)c%10ccccc9%10)ccc8F)CC7)CC6)CC5)C5CCCCC5)c4)C3)(CC1)OC2` (some centres unmarked) [Compound I-157]: the IC50 in experiment [1] (Homo sapiens) is 100 to 1000 nM; at PARP1 [2], less than 1 nM; with MDA-MB-436 cells (Homo sapiens, 168 h) it was 10 to 100 nM; at PARP1 [3], 100 to 1000 nM; with HCC1806 cells (Homo sapiens, 168 h) it was less than 10 nM.

For `CCc1cccc(-c2cnc(C(=O)NCCOCCNCC(=O)N3CCN(C(=O)c4cc(Cc5n[nH]c(=O)c6ccccc56)ccc4F)CC3)c(NC(C)=O)c2)c1` [Compound I-403], the IC50 in experiment [1] (Homo sapiens) is 10 to 100 nM; in the experiment on A2780 cells it was 10 to 100 nM; at PARP1 [2] it was less than 1 nM; with MDA-MB-436 cells (Homo sapiens, 168 h), less than 10 nM; at PARP1 [3], 100 to 1000 nM; in the experiment with HCC1806 cells (Homo sapiens, 168 h), 10 to 100 nM.

With `CCc1cccc(-c2cnc(C(=O)N3CCN(CC4CCN(CC(=O)N5CCN(C(=O)c6cc(Cc7n[nH]c(=O)c8ccccc78)ccc6F)CC5)CC4)CC3)c(NC(=O)CNCc3cc(C)no3)c2)c1` [Compound I-233], the IC50 was 10 to 100 nM in experiment [1] (Homo sapiens); less than 1 nM at PARP1 [2]; 10 to 100 nM in the experiment on MDA-MB-436 cells (Homo sapiens, 168 h); 100 to 1000 nM on PARP1 [3]; less than 10 nM in the experiment on HCC1806 cells (Homo sapiens, 168 h).

For `O=C(N[C@@H](C(=O)N1CCN(CC2CCN(CC(=O)N3CCN(C(=O)c4cc(Cc5n[nH]c(=O)c6ccccc56)ccc4F)CC3)CC2)CC1)C1CCCCC1)c1cccc(C2CCCN(C(=O)C3CC3)C2)c1` (some centres unmarked) [Compound I-962], the IC50 in experiment [1] (Homo sapiens) is 10 to 100 nM; in the experiment on A2780 cells it was 100 to 1000 nM; on PARP1 [2] it was less than 1 nM; in the experiment on MDA-MB-436 cells (Homo sapiens, 168 h), 10 to 100 nM; at PARP1 [3] it was 100 to 1000 nM; with HCC1806 cells (Homo sapiens, 168 h), 100 to 1000 nM.
